Laboratory results from paper PMC7968329, “Triazoloacridone C-1305 impairs XBP1 splicing by acting as a potential IRE1α endoribonuclease inhibitor” (Cellular & Molecular Biology Letters, 2021).

Target: T1, IRE1α (Homo sapiens, UniProt O75460)
T1 construct: gene ERN1
Assay: ADP-Glo luminescent kinase assay with purified IRE1
Format: biochemical

T1 sequence (O75460 19-977): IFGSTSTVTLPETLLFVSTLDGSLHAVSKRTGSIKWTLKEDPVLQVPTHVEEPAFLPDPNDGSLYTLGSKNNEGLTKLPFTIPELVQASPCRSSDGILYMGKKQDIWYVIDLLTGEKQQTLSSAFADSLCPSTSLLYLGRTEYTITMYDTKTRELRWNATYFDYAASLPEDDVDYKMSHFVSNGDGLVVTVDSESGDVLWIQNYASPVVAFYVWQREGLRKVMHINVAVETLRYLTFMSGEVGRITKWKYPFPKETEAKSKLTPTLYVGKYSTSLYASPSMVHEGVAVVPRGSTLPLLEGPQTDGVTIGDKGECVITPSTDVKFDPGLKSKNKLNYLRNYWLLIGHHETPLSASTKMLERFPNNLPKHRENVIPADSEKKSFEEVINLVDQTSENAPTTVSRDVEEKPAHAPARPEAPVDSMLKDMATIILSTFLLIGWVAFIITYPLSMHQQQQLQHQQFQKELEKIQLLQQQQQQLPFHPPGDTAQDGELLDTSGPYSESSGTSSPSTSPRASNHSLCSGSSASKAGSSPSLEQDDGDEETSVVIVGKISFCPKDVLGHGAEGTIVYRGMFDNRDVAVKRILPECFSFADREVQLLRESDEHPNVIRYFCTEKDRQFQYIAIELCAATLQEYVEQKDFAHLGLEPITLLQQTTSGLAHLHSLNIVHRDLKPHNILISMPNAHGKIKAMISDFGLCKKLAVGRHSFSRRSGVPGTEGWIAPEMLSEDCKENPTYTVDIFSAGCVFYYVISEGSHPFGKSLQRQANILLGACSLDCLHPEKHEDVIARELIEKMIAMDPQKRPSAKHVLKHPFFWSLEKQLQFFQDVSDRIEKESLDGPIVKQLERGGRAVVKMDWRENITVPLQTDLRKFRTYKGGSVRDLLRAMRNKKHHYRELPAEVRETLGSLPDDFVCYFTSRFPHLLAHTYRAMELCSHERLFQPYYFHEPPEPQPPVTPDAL

With `Cc1cc(=O)oc2c(C=O)c(O)ccc12` [4µ8C, 7-Hydroxy-4-methyl-2-oxo-2H-chromene-8-carbaldehyde] as the compound, how does the IC50 read?
Its IC50 is 31.2 µM.
